In patent US20210023074A1, “TREATMENT OF DEMYELINATING DISEASES” (Victoria Link Ltd., priority 2018, published 2021):

Assays:
Type in all cases: in vivo, C57BL/6 mice
[1] = test system: lymphocyte populations in the spleen of EAE mice; assay: Splenocyte flow cytometry in chronic phase of EAE; details: 0.01 mg/kg i.p. daily, 27 days post treatment initiation
Description: Experimental detail: EAE was induced in female C57BL/6 mice as described in Example 1. On the day of disease onset (score >1), mice were started on daily treatment with vehicle only or nalmefene at 0.01 mg/kg by i.p. injection. During the chronic phase (27 days post treatment initiation), mice were culled and their splenocytes assessed by flow cytometry. The percentage of the major lymphocyte populations were identified using CD4 (CD4 T helper cells), CD8 (CD8 cytotoxic T cells), and B220 (B cells), and expressed as % live leukocytes (i.e. CD45^+ cells). Shown are the means and standard error of individual mice with n=3 (healthy), 4 (vehicle) and 9 (NaIM). No significant differences were found between vehicle and healthy or nalmefene by one-way ANOVA with Holm-Sidak's multiple comparison test.
Experimental detail: EAE was induced in female C57BL/6 mice as described in Figure A. On the day of disease onset (score >1), mice were started on daily treatment with vehicle only or nalmefene at 0.01 mg/kg by i.p. injection. During the chronic phase (27 days post treatment initiation), mice were culled and their splenocytes assessed by flow cytometry. Naïve CD4 T cells (CD4^+CD44^−CD62L^high), effector CD4 T cells (CD4^+CD44^+CD62L^−), and central memory CD4T cells (CD4^+CD44^+CD62L^high) are expressed as % CD4 T cells. “Teff:cm ratio” is the ratio of effector to central memory T cells. […]

[2] = test system: experimental autoimmune encephalomyelitis (EAE) mice; assay: EAE model of MS, disease score, treatment from day of disease onset (score >1)
Description: Experimental detail: EAE was induced in female C57BL/6 mice as described in Example 1. On the day of disease onset (score >1, dotted line), mice were started on daily treatment with vehicle only (Veh) or nalmefene (NaIM) at 0.1, 0.03, 0.01, or 0.003 mg/kg by i.p. injection. […]
Experimental detail: EAE was induced in female C57BL/6 mice as described in Example 1. On the day of disease onset (score >1, dotted line), mice were treated with vehicle only (daily), nalmefene (0.01 mg/kg by i.p. injection daily), the KOR antagonist norBNI (10 mg/kg by i.p. injection weekly), both nalmefene and norBNI, or the MOR antagonist BFNA (10 mg/kg by i.p. injection weekly).
Experimental detail: EAE was induced in female C57BL/6 mice as described in Example 1. On the day of disease onset (score >1, dotted line), mice were treated with vehicle only (daily), nalmefene (0.01 mg/kg by i.p. injection daily), the KOR antagonist norBNI (10 mg/kg by i.p. injection weekly), both nalmefene and norBNI, or the MOR antagonist BFNA (10 mg/kg by i.p. injection weekly). The peak disease score during the first EAE episode was recorded, and mice were considered recovered if they received a score <0.5 by day 23 post treatment initiation.
Experimental detail: EAE was induced in female C57BL/6 mice as described in Example 1.

EAE-induced weight loss = details: 0.1 or 0.03 mg/kg i.p. daily from day 17
Description: Experimental detail: Female, C57BL/6 mice were immunized subcutaneously (s.c.) in the hind flanks to induce EAE using myelin oligodendrocyte glycoprotein (MOG) peptide 35-55 (50 μg/mouse) in complete Freund's adjuvant containing heat-killed Mycobacterium tuberculosis (500 μg/mouse). In addition, pertussis toxin (200 ng/mouse) was administered intraperitoneally (i.p.) on days 0 and 2. Mice were weighed and scored daily. On day 17 (dotted line), mice were started on daily treatment with vehicle only (Veh; 10% tween and 10% DMSO in saline) or Nalmefene (NaIM) at 0.1, 0.03, or 0.01 mg/kg by i.p. injection. Nalmefene was supplied by University of Kansas, Synthetic Chemical Biology Core Laboratory, 97.6% pure by HPLC). Treatment allocation was blinded. The disease was scored from 0-5 with 0 (normal), 1 (partial tail paralysis), 2 (full tail paralysis), 3 (one hind limb paralysed or severe disability in both hind limbs), 4 (complete paralysis of both hind limbs) and 5 (moribund). This model is a standard disease model for multiple sclerosis and is described in White et al. 2018. Scientific Reports. 8:259 which is incorporated herein by reference in its entirety. […]
Experimental detail: EAE was induced in female C57BL/6 mice as described in Example 1. Mice were weighed daily and the % change in body weight calculated. […]

[3] = 0.01 mg/kg i.p. daily from disease onset
[4] = 0.003-0.1 mg/kg i.p. daily from disease onset

C=C1CC[C@@]2(O)[C@H]3Cc4ccc(O)c5c4[C@@]2(CCN3CC2CC2)[C@H]1O5 [nalmefene, (4R,4aS,7aS,12bS)-3-(cyclopropylmethyl)-7-methylidene-2,4,5,6,7a,13-hexahydro-1H-4,12-methanobenzofuro[3,2-e]isoquinoline-4a,9-diol]
Teff:cm ratio (effector to central memory CD4 T cells) in spleen [1]: reduced ratio | proportion of major lymphocyte populations in the spleen (CD4, CD8, B220; % live leukocytes) [1]: does not alter the proportion of the major lymphocyte populations in the spleen | disease score (recovery from paralysis) [2, 3]: recovery from paralysis, which is complete | peak disease score during first EAE episode [2, 3]: modest but significant effect | percentage of mice recovered (score <0.5 by day 23 post treatment initiation) [2, 3]: all of the mice recover | number of days in recovery [2, 4]: enables a sustained functional recovery | percentage of mice recovered (score <0.5 by day 23 post treatment initiation) [2, 4]: enables full functional recovery | dose showing the most rapid recovery ([2]; i.p. daily from disease onset, replicated in 6 independent experiments): 0.01 mg/kg | disease score ([2]; nalmefene 0.01 mg/kg i.p. daily in the presence of norBNI 10 mg/kg i.p. weekly): effective at reducing disease independently of the KOR | number of days in recovery (sustained recovery) ([2]; nalmefene 0.01 mg/kg i.p. daily, clemastine fumerate 10 mg/kg i.p.): sustained recovery | disease score (functional recovery), comparison nalmefene vs clemastine ([2]; nalmefene 0.01 mg/kg i.p. daily, clemastine fumerate 10 mg/kg i.p., from disease onset): almost complete recovery from paralysis | % change in body weight (EAE-induced weight loss): recover from EAE-induced weight loss
